For experiment [1], the target named is T1, α-synuclein (AS) filaments (Homo sapiens, UniProt P37840). Briefly: Radioligand competition assay of α-synuclein. It is filed as binding. As to conditions: for displacement of the radioligand from the AS filaments: [3H]-Me-BTA1 radioligand, Fig. 3b. Background: Displacement assays read how much labelled ligand stays bound in the presence of the test substance.

Experiment [2] concerns the target Aβ fibrils. The conditions noted are these: read-out: Kd and Ki values, Aβ, in vitro generated Aβ fibrils, cited from earlier work.
Experiment [3] has as its target T1, α-synuclein (AS) filaments. Briefly: Radioligand binding assay of α-synuclein.

Each structure is given as a SMILES string. Where two headings read alike, the source gives them in different places.

Take `CN(C)c1ccc(-c2cc3cc(Br)ccc3o2)cc1` [BF1, 5-bromo-2-(4-dimethylaminophenyl)benzofuran]: in experiment [1], the “displacement of the radioligand from the AS filaments” value was “dose-dependent displacement”. For the same compound, the Ki (commonly the equilibrium dissociation constant of an inhibitor or competing ligand from its target) in experiment [2] (ref Lockhart et al. 2005) was 3 nM.
On to `CNc1ccc(-c2nc3ccc(C)cc3s2)cc1` [Me-BTA1, 2-[4′-(methylamino)phenyl]-6-methylbenzothiazole], for which, in experiment [2] (ref Lockhart et al. 2005), the dissociation constant Kd (commonly the free concentration of one partner at which half of the binding sites on the other are occupied at equilibrium, for simple one-to-one binding) was 4.2 nM.
Regarding `CNc1ccc(-c2nc3ccc(O)cc3s2)cc1` [PIB, 2-[4′-(methylamino)phenyl]-6-hydroxybenzothiazole], the “fold weaker binding than BF1” value in experiment [1] (Ki relative to BF1) is “around fourfold weaker”. For the same compound, the “displacement of the radioligand from the AS filaments” value in experiment [1] is “dose-dependent displacement”. For the same compound, the Kd in experiment [3] was 4.16 nM. The inhibitory constant (Ki) in experiment [2] (ref Ye et al. 2005) was 25 nM.

The values are drawn from PMC2408655 (Journal of Neurochemistry, 2008).
